Read-outs that look alike come from different tables or passages of the source.
What was measured:
[1] = system: SKBR-3 breast cancer cells; assay: MTT in vitro cytotoxicity assay, SKBR-3; type: cell-based; details: Homo sapiens; for viability at 10 µM: SK-BR-3, 10 μM, 72 h, read-out: Cell viability (%) SKBR-3; for GI50: SK-BR-3, 72 h, read-out: GI50 ± SD SKBR-3
Procedure: (§1) The synthesized compounds were tested against three breast tumor cell lines (MDA-MB231, SKBR-3 and MCF-7) and epithelial breast cell line (MCF-10A) by the MTT colorimetric assay.[29,30] All cells were obtained from the American Type Culture Collection. The cancerous cell lines were grown in Dulbecco's modified eagle medium (DMEM) supplemented with 10% fetal bovine serum (FBS) and 1% pen-strep antibiotic. The MCF-10A human epithelial breast cell line was grown in the complete mammary epithelial growth medium containing horse serum 5%, epithelial growth factor 20 ng mL^−1, hydrocortisone […], cholera toxin 100 ng mL^−1, insulin 10 μg mL^−1, and pen-step antibiotic.[31] For the cytotoxic assay, 20 to 75 × 10^3 cells per mL (based on the doubling time for each cell line) were seeded in 96-well plates and the plates were incubated overnight in a humidified air atmosphere at 37 °C in 5% CO2 incubator.
(§2) The cells were then treated with compounds at different concentrations. After 72 h of incubation, the MTT (0.5 mg mL^−1) was added to wells, followed by 4 h of incubation. The culture medium was then removed and DMSO (100 μL per well) was added and the absorbance values were measured at 570 nm using the multi-well Tecan NanoQuant, Infinite m200 Pro plate reader. Growth inhibitory values (GI50) were calculated using GraphPad Prism 7 (GraphPad Software, San Diego, USA) by nonlinear regression analysis. Three independent experiments were carried out and the data was expressed in mean ± standard deviation (SD). The concentration–response curves used for the GI50 calculation are available in ESI. ^†

[2] = system: MCF-10A human epithelial breast cell line; assay: MTT in vitro cytotoxicity assay, MCF-10A; type: cell-based; details: 72 h, read-out: GI50 ± SD MCF-10A
Procedure: as §1, §2

MDA-MB231 cells [3] = assay: Acridine orange/propidium iodide double staining, fluorescence microscopy; type: cell-based; details: MDA-MB231, 24 h after treatment; 16 at 125 and 250 nM, 18 at 2.5 and 5 nM
Procedure: Fluorescence microscopy was used to visualize the apoptosis in cancer cells with AO/PI staining.[20] MDA-MB231 cells were grown in 6-well plate (5 × 10^5 cells per well). […] One of the six wells was treated with 1% DMSO and served as a negative control, another well treated with methotrexate served as a positive control. After 24 h of incubation, the wells were washed with phosphate buffered saline (PBS) three times and 100 μL of AO (100 μg mL^−1 in PBS) and 25 μL of PI (100 μg mL^−1 in PBS) in 1 mL of media were added to each well. The plate was then observed under a motorized inverted fluorescent microscope (Eclipse Ti2-E, Nikon). Three independent experiments at each concentration were carried out.

[4] = system: MDA-MB231 breast cancer cells; assay: MTT in vitro cytotoxicity assay, MDA-MB231; type: cell-based; details: for viability at 10 µM / GI50: Homo sapiens, MDA-MB-231; for viability at 10 µM: read-out: Cell viability (%) MDA-MB231
Procedure: as §1, §2

[5] = system: MCF-7 breast cancer cells; assay: MTT in vitro cytotoxicity assay, MCF-7; type: cell-based; details: Homo sapiens; for viability at 10 µM: MCF7, 10 μM, 72 h, read-out: Cell viability (%) MCF-7; for GI50: MCF7, 72 h, read-out: GI50 ± SD MCF-7
Procedure: as §1, §2

[6] = system: MDA-MB231 breast cancer cells; assay: Time-dependent cytotoxicity (MTT); type: cell-based; details: for inhibition at 0.125 µM / growth inhibition at 125 nM, 12 h: MDA-MB231, 125 nM
Procedure: MDA-MB231 breast cancer cells were grown in DMEM supplemented with 10% FBS and 1% pen-strep antibiotic. The cells were seeded in 96-well plates (20 × 10^3 cells per mL) and the plates were incubated overnight in a humidified air atmosphere at 37 °C in 5% CO2 incubator. The cells were then treated with compounds 16 or 18 in concentrations ranging from 0.2 nM to 125 nM for 12, 24, 48, and 72 h. After specified time for each experiment, MTT (0.5 mg mL^−1) was added to wells, followed by 4 h of incubation. The culture medium was then removed and DMSO (100 μL per well) was added and the absorbance values were measured at 570 nm using the multi-well Tecan NanoQuant, Infinite m200 Pro plate reader. GI50 values were calculated using GraphPad Prism 7 (GraphPad Software, San Diego, USA) by nonlinear regression analysis. All the time-dependent experiments at different times were carried out using the same passage of MDA-MB231 cells. Three independent experiments were carried out and the data were expressed in mean ± standard deviation (SD).

MDA-MB231 cells [7] = assay: Live cell imaging with AO/PI; type: cell-based; details: MDA-MB231, 10 μM, 4 h
Procedure: MDA-MB231 cells (1 × 10^6 cells) were seeded in a Petri dish and incubated overnight in a humidified air atmosphere at 37 °C in 5% CO2 incubator. Then, the Petri dish was washed with PBS three times and 300 μL of AO (100 μg mL^−1 in PBS) and 75 μL of PI (100 μg mL^−1 in PBS) in 3 mL of media were added to the Petri dish. The cells were treated with 10 μM of compound 18 and the dish was then transferred to motorized inverted fluorescent microscope (Eclipse Ti2-E, Nikon). The pictures were taken every 10 minutes for 4 h and intercalated into video (see ESI ^†).

[8] = 72 h, MTT, read-out: GI50 ± SD MDA-MB231
[9] = MDA-MB231, calculated from GI50, read-out: Experimental pGI50 (converted)
[10] = Homo sapiens, MDA-MB-231, 12 h, read-out: growth inhibition at 125 nM, 12 h
[11] = Homo sapiens, MDA-MB-231, MDA-MB231, 72 h, read-out: GI50 ± SD, 72 h
[12] = Homo sapiens, MDA-MB-231, MDA-MB231, 24 h, concentration used in Fig. 3

SMILES	viability at 10 µM [1]	GI50 [1]	GI50 [2]	cell morphology, AO/PI double staining (MDA-MB231 cells [3])	viability at 10 µM ([4]; 72 h, MTT)	GI50 [4, 8]	GI50 [4, 9]	viability at 10 µM [5]	GI50 [5]	inhibition at 0.125 µM [6, 10]	GI50 [6, 11]	growth inhibition at 125 nM, 12 h ([6]; 12 h)	melting point	further results
COc1cc(-c2nc(N)nc(Nc3ccc(Cl)cc3)n2)cc(OC)c1OC [Compound 16, N ^2-(4-Chlorophenyl)-6-(3,4,5-trimethoxyphenyl)-1,3,5-triazine-2,4-diamine]	48%	300 ± 40 nM	> 20000 nM	signs of apoptosis	20%	7 ± 0.01 nM	7.08 nM	52%	12500 ± 200 nM	17%	7 ± 0.6 nM	no significant inhibition of the cell growth	209 to 211 °C	inhibition at 0.125 µM ([6]; Homo sapiens, MDA-MB-231, 24 h, read-out: growth inhibition at 125 nM, 24 h): 61%; inhibition at 0.125 µM ([6]; Homo sapiens, MDA-MB-231, 48 h, read-out: growth inhibition at 125 nM, 48 h): 75%
COc1cc(-c2nc(N)nc(Nc3ccc(C)cc3)n2)cc(OC)c1OC [Compound 18, N ^2-(4-Methylphenyl)-6-(3,4,5-trimethoxyphenyl)-1,3,5-triazine-2,4-diamine]	37%	210 ± 10 nM	> 20000 nM	signs of apoptosis	14%	1 ± 0.01 nM	2 nM	62%	> 20000 nM	15%	1 ± 0.02 nM	no significant inhibition of the cell growth		fold more active than methotrexate ([4]; MDA-MB231): 10 fold; fold more potent than nilotinib ([4]; MDA-MB231): 40 fold; IC20 [6, 12]: 2.5 nM; IC50 [6, 12]: 5 nM; GI50 ([6]; Homo sapiens, MDA-MB-231, MDA-MB231, 24 h, read-out: GI50 ± SD, 24 h): 5 ± 0.1 nM; GI50 ([6]; Homo sapiens, MDA-MB-231, MDA-MB231, 48 h, read-out: GI50 ± SD, 48 h): 4 ± 0.3 nM; morphological changes in live cell imaging (MDA-MB231 cells [7]): inducing apoptosis
COc1cc(-c2nc(N)nc(Nc3ccc(OC(F)(F)F)cc3)n2)cc(OC)c1OC [Compound 20, N ^2-(4-(Trifluoromethoxy)phenyl)-6-(3,4,5-trimethoxyphenyl)-1,3,5-triazine-2,4-diamine]	45%	5000 ± 350 nM	> 20000 nM		20%	1500 ± 100 nM	1480 nM	51%	> 20000 nM				179 to 181 °C	
COc1cc(-c2nc(N)nc(Nc3ccc(C(C)C)cc3)n2)cc(OC)c1OC [Compound 21, N ^2-(4-Isopropylphenyl)-6-(3,4,5-trimethoxyphenyl)-1,3,5-triazine-2,4-diamine]	42%	1100 ± 50 nM	> 20000 nM		9%	40 ± 2 nM	39.8 nM	49%	10700 ± 1100 nM				190 to 192 °C	

— PMC9055250, “Design, synthesis, and biological evaluation of new 6,N^2-diaryl-1,3,5-triazine-2,4-diamines as anticancer agents selectively targeting triple negative breast cancer cells” (RSC Advances, 2020)
